The values that follow are results of earlier work, collected in patent US20140288136A1, “METHODS AND USES OF CYTOCHROME P450 INHIBITORS” (ANGION BIOMEDICA CORP, priority 2009, published 2014).

The data set concerns hepatitis C. The conditions noted are these: chronic hepatitis C infection.

Read-outs that look alike come from different tables or passages of the source.

interferon: the response is recorded as around 50% (in combination with ribavirin) and around 20% (used alone).
